Data from PubChem BioAssay AID1259407 (Chemical Carcinogenesis Research Information System (CCRIS), 2018).
Calls of active or inactive are those of the source. No rule for the calls is given here.

Test system: CCRIS mutagenicity, Ames/micronucleus/aberration tests
Test: CCRIS mutagenicity studies
[1] = Test System: AMES SALMONELLA TYPHIMURIUM, Strain/Indicator: TA98, Metabolic Activation: NONE, Method: STANDARD PLATE
[2] = Test System: AMES SALMONELLA TYPHIMURIUM, Strain/Indicator: TA100, Metabolic Activation: NONE, Method: STANDARD PLATE

For [Cl][Rh-2]([Cl])([Cl])([Cl])[Cl], the mutagenic call (Test System: AMES SALMONELLA TYPHIMURIUM, Strain/Indicator: TA97A, Metabolic Activation: NONE, Method: STANDARD PLATE) was “inactive; negative”, the mutagenic call (Test System: AMES SALMONELLA TYPHIMURIUM, Strain/Indicator: TA97A, Metabolic Activation: RAT, LIVER, S-9, PHENOBARBITAL AND 5,6-BENZOFLAVONE, Method: STANDARD PLATE) was “active; positive” and the mutagenic call (Test System: AMES SALMONELLA TYPHIMURIUM, Strain/Indicator: TA97A, Metabolic Activation: RAT, LIVER, S-9, PHENOBARBITAL AND BETA-NAPHTHOFLAVONE, Method: STANDARD PLATE) was “active; positive”. The mutagenic call [1] was “active; positive”, the mutagenic call (Test System: AMES SALMONELLA TYPHIMURIUM, Strain/Indicator: TA98, Metabolic Activation: RAT, LIVER, S-9, PHENOBARBITAL AND 5,6-BENZOFLAVONE, Method: STANDARD PLATE) was “active; positive” and the mutagenic call (Test System: AMES SALMONELLA TYPHIMURIUM, Strain/Indicator: TA98, Metabolic Activation: RAT, LIVER, S-9, PHENOBARBITAL AND BETA-NAPHTHOFLAVONE, Method: STANDARD PLATE) was “active; positive”. For the same molecule, the mutagenic call [2] was “inactive; negative”, the mutagenic call (Test System: AMES SALMONELLA TYPHIMURIUM, Strain/Indicator: TA100, Metabolic Activation: RAT, LIVER, S-9, PHENOBARBITAL AND 5,6-BENZOFLAVONE, Method: STANDARD PLATE) was “active; positive” and the mutagenic call (Test System: AMES SALMONELLA TYPHIMURIUM, Strain/Indicator: TA100, Metabolic Activation: RAT, LIVER, S-9, PHENOBARBITAL AND BETA-NAPHTHOFLAVONE, Method: STANDARD PLATE) was “active; positive”. For the same molecule, the mutagenic call (Test System: AMES SALMONELLA TYPHIMURIUM, Strain/Indicator: TA102, Metabolic Activation: NONE, Method: STANDARD PLATE) was “active; positive”, the mutagenic call (Test System: AMES SALMONELLA TYPHIMURIUM, Strain/Indicator: TA102, Metabolic Activation: RAT, LIVER, S-9, PHENOBARBITAL AND 5,6-BENZOFLAVONE, Method: STANDARD PLATE) was “active; positive” and the mutagenic call (Test System: AMES SALMONELLA TYPHIMURIUM, Strain/Indicator: TA102, Metabolic Activation: RAT, LIVER, S-9, PHENOBARBITAL AND BETA-NAPHTHOFLAVONE, Method: STANDARD PLATE) was “active; positive”.
With N#CCc1ccccc1 the mutagenic call (Test System: AMES SALMONELLA TYPHIMURIUM, Strain/Indicator: TA97, Metabolic Activation: HAMSTER, LIVER, S-9, AROCLOR 1254 (10%), Method: PREINCUBATION) was “inactive; negative”, the mutagenic call (Test System: AMES SALMONELLA TYPHIMURIUM, Strain/Indicator: TA97, Metabolic Activation: HAMSTER, LIVER, S-9, AROCLOR 1254 (30%), Method: PREINCUBATION) was “inactive; negative” and the mutagenic call (Test System: AMES SALMONELLA TYPHIMURIUM, Strain/Indicator: TA97, Metabolic Activation: NONE, Method: PREINCUBATION) was “inactive; negative”. For the same molecule, the mutagenic call (Test System: AMES SALMONELLA TYPHIMURIUM, Strain/Indicator: TA97, Metabolic Activation: RAT, LIVER, S-9, AROCLOR 1254 (5 OR 30%), Method: PREINCUBATION) was “inactive; negative”, the mutagenic call (Test System: AMES SALMONELLA TYPHIMURIUM, Strain/Indicator: TA97, Metabolic Activation: RAT, LIVER, S-9, AROCLOR 1254 (10%), Method: PREINCUBATION) was “inactive; negative” and the mutagenic call (Test System: AMES SALMONELLA TYPHIMURIUM, Strain/Indicator: TA98, Metabolic Activation: HAMSTER, LIVER, S-9, AROCLOR 1254 (10%), Method: PREINCUBATION) was “inactive; negative”. For the same molecule, the mutagenic call (Test System: AMES SALMONELLA TYPHIMURIUM, Strain/Indicator: TA98, Metabolic Activation: HAMSTER, LIVER, S-9, AROCLOR 1254 (30%), Method: PREINCUBATION) was “inactive; negative”, the mutagenic call (Test System: AMES SALMONELLA TYPHIMURIUM, Strain/Indicator: TA98, Metabolic Activation: NONE, Method: PREINCUBATION) was “inactive; negative” and the mutagenic call (Test System: AMES SALMONELLA TYPHIMURIUM, Strain/Indicator: TA98, Metabolic Activation: RAT, LIVER, S-9, AROCLOR 1254 (10%), Method: PREINCUBATION) was “inactive; negative”. For the same molecule, the mutagenic call (Test System: AMES SALMONELLA TYPHIMURIUM, Strain/Indicator: TA98, Metabolic Activation: RAT, LIVER, S-9, AROCLOR 1254 (30%), Method: PREINCUBATION) was “inactive; negative”, the mutagenic call (Test System: AMES SALMONELLA TYPHIMURIUM, Strain/Indicator: TA100, Metabolic Activation: HAMSTER, LIVER, S-9, AROCLOR 1254 (10%), Method: PREINCUBATION) was “inactive; negative” and the mutagenic call (Test System: AMES SALMONELLA TYPHIMURIUM, Strain/Indicator: TA100, Metabolic Activation: HAMSTER, LIVER, S-9, AROCLOR 1254 (30%), Method: PREINCUBATION) was “inactive; negative”. For the same molecule, the mutagenic call (Test System: AMES SALMONELLA TYPHIMURIUM, Strain/Indicator: TA100, Metabolic Activation: NONE, Method: PREINCUBATION) was “inactive; negative”, the mutagenic call (Test System: AMES SALMONELLA TYPHIMURIUM, Strain/Indicator: TA100, Metabolic Activation: RAT, LIVER, S-9, AROCLOR 1254 (10%), Method: PREINCUBATION) was “inactive; negative” and the mutagenic call (Test System: AMES SALMONELLA TYPHIMURIUM, Strain/Indicator: TA100, Metabolic Activation: RAT, LIVER, S-9, AROCLOR 1254 (30%), Method: PREINCUBATION) was “inactive; negative”. The mutagenic call (Test System: AMES SALMONELLA TYPHIMURIUM, Strain/Indicator: TA1535, Metabolic Activation: HAMSTER, LIVER, S-9, AROCLOR 1254 (10%), Method: PREINCUBATION) was “inactive; negative”, the mutagenic call (Test System: AMES SALMONELLA TYPHIMURIUM, Strain/Indicator: TA1535, Metabolic Activation: HAMSTER, LIVER, S-9, AROCLOR 1254 (30%), Method: PREINCUBATION) was “inactive; negative” and the mutagenic call (Test System: AMES SALMONELLA TYPHIMURIUM, Strain/Indicator: TA1535, Metabolic Activation: NONE, Method: PREINCUBATION) was “inactive; negative”. For the same molecule, the mutagenic call (Test System: AMES SALMONELLA TYPHIMURIUM, Strain/Indicator: TA1535, Metabolic Activation: RAT, LIVER, S-9, AROCLOR 1254 (30%), Method: PREINCUBATION) was “inactive; negative”, the mutagenic call (Test System: AMES SALMONELLA TYPHIMURIUM, Strain/Indicator: TA1537, Metabolic Activation: HAMSTER, LIVER, S-9, AROCLOR 1254 (10%), Method: PREINCUBATION) was “inactive; negative” and the mutagenic call (Test System: AMES SALMONELLA TYPHIMURIUM, Strain/Indicator: TA1537, Metabolic Activation: HAMSTER, LIVER, S-9, AROCLOR 1254 (30%), Method: PREINCUBATION) was “inactive; negative”. For the same molecule, the mutagenic call (Test System: AMES SALMONELLA TYPHIMURIUM, Strain/Indicator: TA1537, Metabolic Activation: NONE, Method: PREINCUBATION) was “inactive; negative”, the mutagenic call (Test System: AMES SALMONELLA TYPHIMURIUM, Strain/Indicator: TA1537, Metabolic Activation: RAT, LIVER, S-9, AROCLOR 1254 (10%), Method: PREINCUBATION) was “inactive; negative” and the mutagenic call (Test System: AMES SALMONELLA TYPHIMURIUM, Strain/Indicator: TA1537, Metabolic Activation: RAT, LIVER, S-9, AROCLOR 1254 (30%), Method: PREINCUBATION) was “inactive; negative”.
With O=[N+]([O-])c1ccc2ccc3c4c(cc5ccc1c2c53)[C@@H](O)[C@H](O)[C@@H]1O[C@H]41 the mutagenic call (Test System: CHINESE HAMSTER OVARY, Strain/Indicator: CHO-K1-BH4 (HGPRT)/6-THIOGUANINE, Metabolic Activation: NONE) was “active; positive”.
For CC(=O)OC[C@]12CCC(C)=C[C@H]1O[C@@H]1[C@H](O)[C@@H](OC(C)=O)[C@@]2(C)[C@]12CO2, the mutagenic call (Test System: AMES SALMONELLA TYPHIMURIUM, Strain/Indicator: TA98, Metabolic Activation: RAT, LIVER, MICROSOMES, PHENOBARBITAL, Method: STANDARD PLATE) was “inactive; negative”, the mutagenic call [2] was “inactive; negative” and the mutagenic call (Test System: AMES SALMONELLA TYPHIMURIUM, Strain/Indicator: TA100, Metabolic Activation: RAT, LIVER, MICROSOMES, PHENOBARBITAL, Method: STANDARD PLATE) was “inactive; negative”.
CC(C)(C)Br was tested, and the mutagenic call (Test System: AMES SALMONELLA TYPHIMURIUM, Strain/Indicator: TA100, Metabolic Activation: NONE, Method: DESICCATOR) was “active; positive” and the mutagenic call (Test System: AMES SALMONELLA TYPHIMURIUM, Strain/Indicator: TA100, Metabolic Activation: RAT, LIVER, S-9, AROCLOR 1254, Method: DESICCATOR) was “active; positive”.
For OCc1ccc2c3c(cccc13)-c1ccccc1-2, the mutagenic call [1] was “inactive; negative” and the mutagenic call [2] was “inactive; negative”.
In the case of O=[N+]([O-])c1ccc2snc(Cl)c2c1, the mutagenic call [2] is reported as “active; positive”.
CC1=C(Cl)C(=O)OC1O (centres undefined) was tested, and the mutagenic call [2] was “active; positive”, the mutagenic call (Test System: Ames Salmonella typhimurium, Strain/Indicator: TA100, Metabolic Activation: None, Method: Plate incorporation) was “active; positive” and the mutagenic call (Test System: Ames Salmonella typhimurium, Strain/Indicator: TA104, Metabolic Activation: None, Method: Plate incorporation) was “active; positive”. For the same molecule, the mutagenic call (Test System: UDS RAT HEPATOCYTES, Strain/Indicator: THYMIDINE INCORPORATION, Metabolic Activation: NONE, Method: AUTORADIOGRAPHY) was “active; positive”.
